In patent US8809340B2, “Crystalline form” (Novartis AG, priority 2012, dated 2014):
Where a name gives a salt, the structure may show the parent alone.

Legend:
[1] = Solid-form transformation upon drying; assay type: physicochemical; settings: transient solvate form in suspension during the crystallization of Form A
[2] = Relative thermodynamic stability of polymorphic forms; assay type: physicochemical; settings: polymorph comparison, succinate salt

form stability / transformation upon drying [1] | SMILES | thermodynamic stability relative to Form A [2]
transforms into Form A upon drying | CCCN(CCC)C(=O)COC(=O)CCNS(=O)(=O)c1cccc(C(=O)N2CCC3(CC2)CN/C(=N\C(=O)c2nc(Cl)c(N)nc2N)N3)c1 [Form B, 3-(3-{2-[(E)-3,5-Diamino-6-chloro-pyrazine-2-carbonylimino]-1,3,8-triaza-spiro[4.5]decane-8-carbonyl}-benzenesulfonylamino)-propionic acid dipropylcarbamoylmethyl ester succinate salt] | 
 | CCCN(CCC)C(=O)COC(=O)CCNS(=O)(=O)c1cccc(C(=O)N2CCC3(CC2)CN/C(=N\C(=O)c2nc(Cl)c(N)nc2N)N3)c1 [Form C, 3-(3-{2-[(E)-3,5-Diamino-6-chloro-pyrazine-2-carbonylimino]-1,3,8-triaza-spiro[4.5]decane-8-carbonyl}-benzenesulfonylamino)-propionic acid dipropylcarbamoylmethyl ester succinate salt] | thermodynamically more stable than Form A
